Experimental data from US12617794B2, “GABAA positive allosteric modulator compounds, methods of making, and uses thereof” (NEUROCYCLE THERAPEUTICS, INC., priority 2019, dated 2026).
In brackets after ≈: the same amount, converted by molar mass. Structures can show the parent of a compound that is named as a salt. Where two headings read alike, the source gives them in different places.

Key:
Type in all cases: physicochemical
[1] = Dynamic vapor sorption (DVS) of salts (38.9); details: for DVS absorption / moisture: between 0% to 90% RH
Procedure: DVS was determined using IGA Sorp (Hiden Isochema, UK). The sample was tested at a targeted RH of 0 to 90% full cycle in step mode. The analysis was performed in 10% RH increments.

[2] = Solubility in aqueous buffers, SGF, FaSSIF and FeSSIF (Example 15); details: ~20-25° C., ~24 hours; for solubility thermodynamic: 20 °C, thermodynamic from solid, read-out: Measured Conc.; for Measured Conc. (μg/mL): LOQ: 0.1 μg/mL
Procedure: About 2 mg of test article was added to a 1.5 mL vials which contained ˜1.0 mL of one medium listed in Table 7 and Table 8, which was then sealed. The mixtures were stirred at ˜20-25° C. for ˜24 hours. After that, the mixture was filtered by 0.45 μm filter membrane and then the supernatant was analyzed by HPLC.

[3] = Intrinsic dissolution rate in SGF (Example 16); details: 37° C., 100 rpm, linear scope within 2 to 120 min
Procedure: About 100 mg of Free Base Polymorphic Form A or Phosphate Polymorphic Form A was weighed into the intrinsic dissolution apparatus and the sample compressed for 1 minute with a compression force of ˜4 MPa to form a compacted pellet within the stainless-steel die. All loose powder was removed from the surface of the die. The intrinsic dissolution shaft was connected with the stainless-steel die and tightened so only one surface of the pellet was exposed (surface area=0.496 cm^2). The shaft in the spindle was adjusted to ensure the exposed surface of the compacted tablet was ˜3.8 cm from the bottom of the vessel when lowered. The temperature of chamber water was set at 37° C.±0.5° C., the shaft rotation at 100 rpm and the sampling time points at 2, 5, 10, 15, 30, 45, 60, 120 min. SGF was used as dissolution medium (900 mL). At each time point, solution samples were filtered, and the supernatant was analyzed by HPLC-UV.

[4] = Solid stability of free base and salts at 60° C. and 40° C./75% RH (38.3, Example 48); details: for chemical stability / physical stability (crystal form by XRPD): 60° C. and 40° C./75% RH for 7 days; for Crystal form day 7: XRPD
Procedure: Samples of TPA023B Free Base, TPA023B chloride, TPA023B besylate, and TPA023B sulfate were mounted on stability at 60° C. and 40° C./75% RH for up to 7 days. At day-0, day-3 and day-7, the samples were dissolved in diluent to prepare solutions at 0.5 mg/mL for HPLC analysis. Solid samples were analyzed by XRPD to determine the crystal form.
Solid samples were examined using D8 ADVANCE X-ray diffractometer (Bruker). The diffractometer was equipped with LynxEye detector. In XRPD analysis, samples were scanned from 3 to 40° 2θ at a step of 0.02° 2θ. The tube voltage and current were 40 KV and 40 mA, respectively.

[5] = One week accelerated stability testing (Example 3)
Procedure: The stability of Phosphate Polymorphic Form A and Free Base Polymorphic Form A were evaluated under accelerated conditions.

[6] = Reactive crystallization with 1.1 eq phosphoric acid (Example 65); details: stirred at RT 7 hours
Procedure: About 25 mg of Free Base Form H was dissolved or suspended in ˜1 mL of a selected solvent. […] The solid was isolated and characterized.
Free Base Form H was dissolved or suspended in ˜1 mL selected solvent. […] Solid was isolated and characterized. No new phosphate Form was obtained in reactive crystallization under this method.

[7] = Slurry of chloride or besylate salt in EA or heptane at 50° C. overnight; details: slurried in EA or heptane at 50° C. overnight
[8] = 40° C./75% RH, listed as Free base (Form A)
[9] = 60° C., listed as Free base (Form A)

CC(C)(O)c1cnn2c(-c3ccc(F)c(-c4c(F)cccc4C#N)c3)cnc2n1 [Chloride Form B, 2′,6-difluoro-5′-[3-(1-hydroxy-1-methylethyl)-imidazo[1,2-b][1,2,4]triazin-7-yl]biphenyl-2-carbonitrile]
XRPD after DVS [1]: No XRPD change after DVS.
DVS absorption / moisture [1]: DVS: 0-1.4691% absorption

CC(C)(O)c1cnn2c(-c3ccc(F)c(-c4c(F)cccc4C#N)c3)cnc2n1 [Free Base Polymorphic Form A, 2′,6-difluoro-5′-[3-(1-hydroxy-1-methylethyl)-imidazo[1,2-b][1,2,4]triazin-7-yl]biphenyl-2-carbonitrile]
Measured Conc. ([2]; Purified water): 0.14 µg/mL
solubility thermodynamic ([2]; fasted-state simulated intestinal fluid (FaSSIF), fassif, FaSSIF): 2.11 µg/mL (≈ 5.39 µM)
solubility thermodynamic ([2]; fed-state simulated intestinal fluid (FeSSIF), fessif, FeSSIF): 9.63 µg/mL (≈ 24.6 µM)
Measured Conc. ([2]; pH 1.2 Hydrochloric Acid Buffer (50 mM)): 9.77 µg/mL
Measured Conc. (μg/mL) ([2]; pH 3.0 citrate buffer (100 mM)): <LOQ
Measured Conc. (μg/mL) ([2]; pH 4.5 citrate buffer (100 mM)): <LOQ
Measured Conc. (μg/mL) ([2]; pH 7.4 PBS (50 mM)): <LOQ
Measured Conc. (μg/mL) ([2]; pH 9.0 USP Buffer (50 mM)): <LOQ
solubility thermodynamic ([2]; simulated gastric fluid (SGF), simulated gastric fluid, SGF): 1.38 µg/mL (≈ 3.53 µM)
intrinsic dissolution rate [3]: 5×10^−5 mg·cm^2·min^−1
HPLC Purity (%) day 3 [4, 8]: 98.2%
HPLC Purity (%) day 7 [4, 8]: 98.2%
chemical stability [4]: chemically stable
physical stability (crystal form by XRPD) ([4]; listed as TPA023B free base): physically stable
physical stability (crystal form by XRPD) ([4]; listed as TPA-23B free base): remained unchanged
HPLC Purity (%) day 3 [4, 9]: 98.1%
HPLC Purity (%) day 7 [4, 9]: 98.3%
HPLC Purity (%) day 0 ([4]; listed as Free base (Form A)): 98.1%
Assay (%) ([5]; 40° C./75% RH (open), 1 week): 102.35%
Purity (%) ([5]; 40° C./75% RH (open), 1 week): 98.64%
Assay (%) ([5]; 80° C. (open), 1 week): 101.60%
Purity (%) ([5]; 80° C. (open), 1 week): 98.62%
Purity (%) ([5]; Initial): 98.72%
Assay (%) ([5]; Initial, assay criterion 95%-105%): 105.51%
Assay (%) ([5]; Light, ~50 h): 104.28%
Purity (%) ([5]; Light, ~50 h): 98.60%

CC(C)(O)c1cnn2c(-c3ccc(F)c(-c4c(F)cccc4C#N)c3)cnc2n1 [Free Base Polymorphic Form H, 2′,6-difluoro-5′-[3-(1-hydroxy-1-methylethyl)-imidazo[1,2-b][1,2,4]triazin-7-yl]biphenyl-2-carbonitrile]
Result (solid form obtained) ([6]; solvent 1,4-dioxane): Phosphate Form A
Result (solid form obtained) ([6]; solvent ACN): Phosphate Form A
Result (solid form obtained) ([6]; solvent Acetone): Phosphate Form A
Result (solid form obtained) ([6]; solvent BAC): Phosphate Form A
Result (solid form obtained) ([6]; solvent Cyclohexanone): Phosphate Form A
Result (solid form obtained) ([6]; solvent DCM): Phosphate Form A
Result (solid form obtained) ([6]; solvent DEE): Phosphate Form A
Result (solid form obtained) ([6]; solvent EA): Phosphate Form A
Result (solid form obtained) ([6]; solvent IPAC): Phosphate Form A
Result (solid form obtained) ([6]; solvent MEK): Phosphate Form A
Result (solid form obtained) ([6]; solvent MTBE): Phosphate Form A
Result (solid form obtained) ([6]; solvent N-pentane): Phosphate Form A
Result (solid form obtained) ([6]; solvent PPG 2000): Phosphate Form A
Result (solid form obtained) ([6]; solvent Trichloromethane): Phosphate Form A
Result (solid form obtained) ([6]; solvent polysorbate 80): Phosphate Form A

CC(C)(O)c1cnn2c(-c3ccc(F)c(-c4c(F)cccc4C#N)c3)cnc2n1 [TPA023B Besylate (Form A), 2′,6-difluoro-5′-[3-(1-hydroxy-1-methylethyl)-imidazo[1,2-b][1,2,4]triazin-7-yl]biphenyl-2-carbonitrile]
crystal form after slurry [7]: remained unchanged
XRPD after DVS [1]: No XRPD change after
DVS absorption / moisture [1]: DVS: 0-1.047% moisture
HPLC Purity (%) day 3 ([4]; 40° C./75% RH): 98.8%
HPLC Purity (%) day 7 ([4]; 40° C./75% RH): 98.8%
Crystal form day 7 ([4]; 40° C./75% RH): three extra peaks
Crystal form day 7 ([4]; 40° C./75% RH, listed as TPA-23B besylate): three extra peaks
chemical stability [4]: chemically stable
HPLC Purity (%) day 3 ([4]; 60° C.): 98.8%
HPLC Purity (%) day 7 ([4]; 60° C.): 98.8%
HPLC Purity (%) day 0 [4]: 98.8%

CC(C)(O)c1cnn2c(-c3ccc(F)c(-c4c(F)cccc4C#N)c3)cnc2n1 [TPA023B Sulfate (Form A), 2′,6-difluoro-5′-[3-(1-hydroxy-1-methylethyl)-imidazo[1,2-b][1,2,4]triazin-7-yl]biphenyl-2-carbonitrile]
XRPD after DVS [1]: No XRPD change after
hygroscopicity [1]: light hygroscopicity
DVS absorption / moisture [1]: DVS: 0-1.206% moisture
HPLC Purity (%) day 3 ([4]; 40° C./75% RH): 98.8%
HPLC Purity (%) day 7 ([4]; 40° C./75% RH): 98.8%
chemical stability [4]: chemically stable
physical stability (crystal form by XRPD) [4]: physically stable
physical stability (crystal form by XRPD) ([4]; listed as TPA-23B sulfate): remained unchanged
HPLC Purity (%) day 3 ([4]; 60° C.): 98.8%
HPLC Purity (%) day 7 ([4]; 60° C.): 98.8%
HPLC Purity (%) day 0 [4]: 98.8%

CC(C)(O)c1cnn2c(-c3ccc(F)c(-c4c(F)cccc4C#N)c3)cnc2n1 [TPA023B chloride (Form C), 2′,6-difluoro-5′-[3-(1-hydroxy-1-methylethyl)-imidazo[1,2-b][1,2,4]triazin-7-yl]biphenyl-2-carbonitrile]
crystal form after slurry [7]: remained unchanged
HPLC Purity (%) day 3 ([4]; 40° C./75% RH): 98.8%
HPLC Purity (%) day 7 ([4]; 40° C./75% RH): 98.7%
chemical stability [4]: chemically stable
physical stability (crystal form by XRPD) [4]: physically stable
physical stability (crystal form by XRPD) ([4]; listed as TPA-23B chloride): remained unchanged
HPLC Purity (%) day 3 ([4]; 60° C.): 98.4%
HPLC Purity (%) day 7 ([4]; 60° C.): 98.4%
HPLC Purity (%) day 0 [4]: 97.6%
